Data published in PubChem BioAssay (NCI).
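How tested: cells in 96-well plates exposed to compound for 48 hours at five concentrations. At the GI50, growth is halved. TGI denotes the concentration required for complete inhibition of growth.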

Legend:
Test in all cases: growth of human tumour cells (NCI), 48 h
NCI-H23 lung = system: NCI-H23 lung
MALME-3M melanoma = system: MALME-3M melanoma
LOX IMVI melanoma = system: LOX IMVI melanoma
SR leukemia = system: SR leukemia
EKVX NSCLC = system: EKVX NSCLC
SNB-75 CNS = system: SNB-75 CNS
SK-OV-3 ovarian = system: SK-OV-3 ovarian
CCRF-CEM leukemia = system: CCRF-CEM leukemia
UO-31 renal = system: UO-31 renal
SNB-19 CNS = system: SNB-19 CNS

Row | SMILES | GI50 (NCI-H23 lung) | TGI (NCI-H23 lung) | GI50 (MALME-3M melanoma) | TGI (MALME-3M melanoma) | GI50 (LOX IMVI melanoma) | TGI (LOX IMVI melanoma) | GI50 (SR leukemia) | TGI (SR leukemia) | GI50 (EKVX NSCLC) | TGI (EKVX NSCLC) | GI50 (SNB-75 CNS) | TGI (SNB-75 CNS) | GI50 (SK-OV-3 ovarian) | TGI (SK-OV-3 ovarian) | GI50 (CCRF-CEM leukemia) | TGI (CCRF-CEM leukemia) | GI50 (UO-31 renal) | TGI (UO-31 renal) | GI50 (SNB-19 CNS) | TGI (SNB-19 CNS)
1 | O=C(Cc1ccc(Nc2ccnc(C(F)(F)F)c2)cc1)N/N=C/c1ccccc1O | 4.23 µM | > 59.1 µM | 4.07 µM | > 38.4 µM | 1.34 µM | 15.9 µM | 0.352 µM | 4.61 µM | 3.05 µM | > 60.9 µM | 4.81 µM | 79.3 µM | 3.13 µM | > 68.5 µM | 0.716 µM | 8.31 µM | 1.52 µM | > 26 µM | 4.36 µM | > 100 µM
2 | Cc1cc2c(cc1C)[n+](=O)c(C(=O)CC(=O)C(=O)Nc1ccccc1C(C)C)c(C)n2[O-] | – | > 100 µM | – | > 100 µM | – | > 100 µM | – | > 100 µM | – | > 100 µM | – | > 100 µM | – | > 100 µM | – | > 100 µM | – | > 100 µM | – | > 100 µM
3 | NC(=N\N=C/c1ccc(Cl)cc1Cl)/C(N)=N\N=C/c1ccc(Cl)cc1Cl | 39.3 µM | > 100 µM | 41.3 µM | > 100 µM | 25.5 µM | > 100 µM | > 100 µM | > 100 µM | 30.7 µM | > 100 µM | 1.65 µM | 13.4 µM | 1.16 µM | 11.3 µM | 36.5 µM | > 100 µM | 13.3 µM | > 83.6 µM | 26.8 µM | > 100 µM
4 | CN(CSc1ccc(Cl)cc1)c1ccc(CSc2ccc(Cl)cc2)cc1 | 4.24 µM | 19.5 µM | 12 µM | 33.1 µM | 1.63 µM | 6.32 µM | 1.77 µM | 7.58 µM | 3.16 µM | 16 µM | 2.93 µM | 16.1 µM | 7.9 µM | 23.4 µM | 0.704 µM | > 100 µM | 1.06 µM | 4.18 µM | 9.14 µM | 23.2 µM
5 | O=C1c2cccnc2C(=O)c2c1c(C(=O)OCCc1ccccn1)c1ccccn21 | 0.0218 µM | 1.06 µM | 0.0613 µM | 0.924 µM | 0.0206 µM | 1.12 µM | < 0.01 µM | > 100 µM | 0.305 µM | 3.81 µM | < 0.0153 µM | 1.71 µM | 0.0539 µM | 1.17 µM | 1.46 µM | > 25.9 µM | < 0.0117 µM | 0.387 µM | 0.0308 µM | 1.59 µM
6 | NC(=S)N/N=C(\CCC(=O)Nc1ccccc1[N+](=O)[O-])CC(=O)c1ccco1 | – | > 100 µM | – | > 100 µM | – | > 100 µM | – | > 100 µM | – | > 100 µM | – | > 100 µM | – | > 100 µM | – | > 100 µM | – | > 100 µM | – | > 100 µM
7 | CCN1C(=O)N(CC)C2C1NC(=S)N2/N=C/C=C/c1ccccc1OC (centres undefined) | 0.0412 µM | > 100 µM | 0.0599 µM | > 100 µM | 0.0342 µM | > 100 µM | 0.0387 µM | > 100 µM | 0.0532 µM | > 100 µM | 0.0389 µM | > 100 µM | 0.0368 µM | > 100 µM | 0.0373 µM | > 100 µM | 0.0879 µM | > 87.5 µM | 0.0482 µM | > 100 µM
8 | N#Cc1c2ccccc2c2nnc3ccccc3n12 | – | – | > 100 µM | > 100 µM | 6.47 µM | 25.2 µM | 32.7 µM | > 100 µM | 12.6 µM | 72.1 µM | 28.3 µM | > 100 µM | > 100 µM | > 100 µM | – | – | 20 µM | > 100 µM | 41.1 µM | > 100 µM
9 | COc1ncc(-c2ccc3nccc(C#CCN4CCN(S(C)(=O)=O)CC4)c3c2)cc1NS(=O)(=O)c1ccc(F)cc1F | 0.287 µM | 5.9 µM | 0.015 µM | 0.214 µM | 0.0956 µM | 1.41 µM | 0.222 µM | 27 µM | 0.146 µM | 12.4 µM | 0.0106 µM | 0.152 µM | 0.0175 µM | 0.168 µM | 0.101 µM | 2.49 µM | 0.0274 µM | 3.73 µM | 0.299 µM | 2.11 µM
10 | N#C/C(=C\c1ccc(F)cc1)n1nc2cccc(F)c2n1 | 3.9 µM | > 100 µM | 5.03 µM | > 100 µM | 2.92 µM | 9.76 µM | 2.31 µM | > 100 µM | 3.8 µM | > 100 µM | 2.37 µM | 8.09 µM | – | – | 3.24 µM | > 100 µM | 3.65 µM | > 100 µM | 6.67 µM | > 100 µM
11 | O=C(NS(=O)(=O)c1ccc(NC[C@H]2COCCO2)c([N+](=O)[O-])c1)c1ccc(N2CCN(CC3=C(c4ccc(Cl)cc4)CC4(CCC4)CC3)CC2)cc1Oc1cnc2[nH]ccc2c1 | 2.77 µM | 8.6 µM | 1.69 µM | 3.2 µM | 1.85 µM | 3.63 µM | 1.82 µM | 5.31 µM | 2.87 µM | 9.12 µM | 1.76 µM | 6.31 µM | 1.95 µM | 4.57 µM | 2.69 µM | > 100 µM | 1.69 µM | 3.52 µM | 2.39 µM | 7.28 µM
12 | CCN(CC)CC(O)COc1c(Br)c(Br)c(Br)c2c1OC(C)(C)C2 (centres undefined) | 9.04 µM | 28.9 µM | 2.28 µM | 5.14 µM | 2.08 µM | 3.67 µM | 1.75 µM | 3.81 µM | 3.04 µM | 9.64 µM | 5.31 µM | 19.4 µM | 16.7 µM | 36.4 µM | 1.96 µM | 4.08 µM | 5.82 µM | 26.5 µM | 9.22 µM | 33.9 µM
13 | CCCCN(CC)CCCCCCCCCCN1CCCc2cc(OC)ccc21 | 2.16 µM | 6.09 µM | 2.33 µM | 4.98 µM | 1.7 µM | 3.34 µM | 1.94 µM | 5.56 µM | 3.57 µM | 25.4 µM | 3.02 µM | 11 µM | 5.19 µM | 21 µM | 3 µM | 12.5 µM | 2.08 µM | 11.3 µM | 4.01 µM | 18.8 µM
